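Briefly, cells in 96-well plates were exposed to five compound concentrations for 48 h, and endpoints were estimated by linear interpolation. GI50 is the concentration that inhibits growth by half.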 Activity calls are given as the source filed them. No stated cut-off is given here; in the data, active = GI50 up to about 1.1 µM and inactive = higher.
Experiments:
Experiment in all cases: NCI-60 cell line screen, 48 h
LXFL 529 = system: LXFL 529
NCI-H460 = system: NCI-H460
SK-MEL-2 = system: SK-MEL-2
SK-MEL-28 = system: SK-MEL-28
SK-MEL-5 = system: SK-MEL-5
TK-10 = system: TK-10
OVCAR-3 = system: OVCAR-3
M14 = system: M14
SW-620 = system: SW-620
SNB-75 = system: SNB-75
HOP-92 = system: HOP-92
MOLT-4 = system: MOLT-4
UO-31 = system: UO-31
NCI-H522 = system: NCI-H522
SK-OV-3 = system: SK-OV-3
CAKI-1 = system: CAKI-1
OVCAR-8 = system: OVCAR-8
U-251 = system: U-251
T47D = system: T47D
Hs-578T = system: Hs-578T

SMILES	GI50 (LXFL 529)	GI50 (NCI-H460)	GI50 (SK-MEL-2)	GI50 (SK-MEL-28)	GI50 (SK-MEL-5)	GI50 (TK-10)	GI50 (OVCAR-3)	GI50 (M14)	GI50 (SW-620)	GI50 (SNB-75)	GI50 (HOP-92)	GI50 (MOLT-4)	GI50 (UO-31)	GI50 (NCI-H522)	GI50 (SK-OV-3)	GI50 (CAKI-1)	GI50 (OVCAR-8)	GI50 (U-251)	GI50 (T47D)	GI50 (Hs-578T)
CCOC(=O)C(c1ccsc1)P(=O)(OCC)OCC (stereo not drawn)	12 µM (inactive)	14.9 µM (inactive)	20 µM (inactive)	15.1 µM (inactive)	15.7 µM (inactive)	25.4 µM (inactive)	13.7 µM (inactive)	12.9 µM (inactive)	15.4 µM (inactive)	24.1 µM (inactive)	24.3 µM (inactive)	> 100 µM (inactive)	15 µM (inactive)	3.89 µM (inactive)	23 µM (inactive)	14.1 µM (inactive)	16.6 µM (inactive)	17.9 µM (inactive)		
COC(=O)CCC(=O)NC1C2CC3CC(C2)CC1C3 (stereo not drawn)	> 100 µM (inactive)	> 100 µM (inactive)	> 100 µM (inactive)	> 100 µM (inactive)	> 100 µM (inactive)	> 100 µM (inactive)	> 100 µM (inactive)	> 100 µM (inactive)	> 100 µM (inactive)	> 43.1 µM (inactive)	> 100 µM (inactive)	> 100 µM (inactive)	> 100 µM (inactive)	> 100 µM (inactive)	> 100 µM (inactive)	> 100 µM (inactive)	> 100 µM (inactive)	> 100 µM (inactive)		
COc1ncnc2c(NC3OC(CO)C(O)C3O)ncnc12 (stereo not drawn)	0.505 µM (active)	0.279 µM (active)	2.47 µM (inactive)	6.89 µM (inactive)	1.19 µM (inactive)	0.298 µM (active)	0.733 µM (active)	0.296 µM (active)	0.238 µM (active)	0.735 µM (active)	0.0156 µM (active)	0.0471 µM (active)	0.984 µM (active)	1.53 µM (inactive)	0.525 µM (active)	0.267 µM (active)	0.329 µM (active)	2.51 µM (inactive)	0.708 µM (active)	1.03 µM (active)
Clc1ccc(-c2nnc3c4nnc(-c5ccc(Cl)cc5Cl)n4c4ccccc4n23)c(Cl)c1	> 100 µM (inactive)	> 100 µM (inactive)	> 100 µM (inactive)	> 100 µM (inactive)	> 100 µM (inactive)	> 100 µM (inactive)	> 100 µM (inactive)	> 100 µM (inactive)	> 100 µM (inactive)	26.5 µM (inactive)	92.3 µM (inactive)	> 100 µM (inactive)	> 100 µM (inactive)	> 100 µM (inactive)	> 100 µM (inactive)	> 100 µM (inactive)	> 100 µM (inactive)	> 100 µM (inactive)		
CC1(C)CC(=O)C(/C(=N/NC(=S)NN)C(=O)Nc2nc3ccc([N+](=O)[O-])cc3s2)C(=O)C1	> 100 µM (inactive)	> 100 µM (inactive)	> 100 µM (inactive)	> 100 µM (inactive)	> 100 µM (inactive)	> 100 µM (inactive)	67.9 µM (inactive)	> 100 µM (inactive)	> 100 µM (inactive)	> 100 µM (inactive)	> 100 µM (inactive)	55.1 µM (inactive)	89.7 µM (inactive)	> 100 µM (inactive)	> 100 µM (inactive)	> 100 µM (inactive)	> 100 µM (inactive)	> 100 µM (inactive)		
CC1=C(C(=O)Nc2cc(F)c(F)cc2F)C(c2ccc([N+](=O)[O-])cc2)C(C(=O)Nc2cc(F)c(F)cc2F)=C(C)N1	39.7 µM (inactive)	43.9 µM (inactive)	18 µM (inactive)	42.7 µM (inactive)	23.6 µM (inactive)	22.5 µM (inactive)	19.1 µM (inactive)	54.2 µM (inactive)	48.2 µM (inactive)	8.26 µM (inactive)	12.8 µM (inactive)	15 µM (inactive)	13.1 µM (inactive)	15.7 µM (inactive)	54.5 µM (inactive)	18.5 µM (inactive)	33.8 µM (inactive)	30.7 µM (inactive)		
Brc1ccc2c(C3CN[C@@H](c4c[nH]c5cc(Br)ccc45)CN3)c[nH]c2c1 (stereo partly drawn)	2.13 µM (inactive)	1.3 µM (inactive)	3.02 µM (inactive)	11.3 µM (inactive)	3.67 µM (inactive)	8.04 µM (inactive)	6.03 µM (inactive)	2.55 µM (inactive)	2.48 µM (inactive)	16.1 µM (inactive)	1.66 µM (inactive)	1.44 µM (inactive)	5.68 µM (inactive)	2.54 µM (inactive)	6.14 µM (inactive)	10.4 µM (inactive)	4.23 µM (inactive)	5.37 µM (inactive)		
CCCCCCCCCCCC[C@@H](O)[C@H]1CC[C@H]([C@H](O)CCCC[C@H](O)CCCCC[C@@H](O)CC2=C[C@H](C)OC2=O)O1	1.84 µM (inactive)	2.07 µM (inactive)	0.867 µM (active)	2.8 µM (inactive)	0.0143 µM (active)	3.07 µM (inactive)	0.569 µM (active)	2.45 µM (inactive)	3.22 µM (inactive)	2.92 µM (inactive)	2.34 µM (inactive)	0.363 µM (active)	1.05 µM (active)	0.565 µM (active)	4.03 µM (inactive)	2.64 µM (inactive)	3.74 µM (inactive)	2.78 µM (inactive)	2.39 µM (inactive)	3.17 µM (inactive)

From ChEMBL document CHEMBL1201862, “PubChem BioAssay data set” (2004)
